Tests used:
[1] = system: T1, PPARγ-LBD; assay: Bio-layer interferometry, PPARγ LBD; format: binding, human; settings: biolayer interferometry, Figure S7D, E
T1 construct: human PPARγ-LBD (residues 223-505); 6xHis; made in house; host or cells: E. coli BL21 (DE3)
Method: The bio-layer interferometry assay was performed at 30 °C on the Octet RED96 System (ForteBio, USA) with PBS as the running buffer. Purified PPARγ-LBD were biotinylated using the EZ-Link Sulfo-NHS-LC-Biotinylation Kit (Thermo Fisher Scientific, USA) according to the manufacturer's instructions. The biotinylated PPARγ was then immobilized onto SSA Biosensors (ForteBio, USA), pre-equilibrated in the running buffer. The biosensors were incubated with various concentrations of the GlcCer or pioglitazone, followed by dissociation. The data were analyzed and the binding parameters were determined using the software supplied by the manufacturer.

[2] = system: PPARγ; assay: PPRE-luciferase (dual-luciferase) activity assay in N2a cells; format: cell-based; settings: N2a cells transfected with wild-type Pparg
Method: N2a cells were seeded into 24-well plates and cultured for 24 hours before transfection. A DNA mixture containing the PPRE-luciferase reporter plasmid (0.5 μg), PPARγ/ PPARγ mutation plasmid (0.5 μg) and an internal control plasmid pRL-SV-40 (25 ng) was transfected using lipofectamine 3000 transfection reagent (L3000001, Invitrogen, USA) according to the manufacturer's recommendations. After transfection, the cells were incubated for an additional 48 h.

[3] = system: CRS-induced mice; assay: Behavioral tests (OFT, EPMT, LDT, SPT, FST) in chronic restraint stress mice, intra-dorsal striatal infusion; format: in vivo
Method: For intracranial injection, mice were surgically implanted with sterilized guide cannulae in dorsal striatum. […] Mice were intraperitoneally injected with CNO (1 mg/kg/d) before behavioral test.
Chronic restraint stress (CRS). For the CRS protocol, male C57BL/6J mice (8-10 weeks old) were obtained from Charles River Laboratories (Beijing, China). Mice were individually placed into well-ventilated 50 mL conical restraint tube (suitable for mice weighing 20-25 g) with multiple holes for 4 h daily between 10:00 AM and 2:00 PM to minimize circadian rhythm variations. The restraint stress procedure was conducted for 14 consecutive days. Then, all behavioral test were performed between 10:00 AM and 18:00 PM.
Elevated plus maze test (EPMT).
Light-dark Transition test (LDT).
Sucrose preference test (SPT).
Forced swimming test (FST).

[4] = LC-MS of GlcCer levels in dorsal striatum of CRS-induced mice; format: in vivo; settings: intra-dorsal striatum infusion of pioglitazone, GlcCer or combination
Method: The procedure for the extraction of sphingolipids was established according to the LIPID MAPS protocol with modifications. Briefly, dorsal striatal tissues were added 0.5 mL of MeOH, 0.25 mL of CHCl3 and 7.5 μL of internal standards cocktail (2.5 μM). For sphingolipidomics, 5 μL of internal standards mixture (LM6002, Avanti polar lipids) was added. The mixture was then ultrasonicated for 45 s at room temperature and incubation at 48°C overnight. To avoid potentially interfering glycerolipids, 75 μL of KOH in MeOH (1M) was added, followed by incubation in a heat block at 200 rpm for 2 h at 37 °C. After neutralization, a four-step extraction process was performed to obtain SPL extract for analysis. The supernatant was transferred to a new Eppendorf tube and the resides were added l mL of MeOH and 2 mL of CHCl3, followed by centrifugation at 3800 rpm for 8 min. […] Sphingolipidomics were measured with ultra-high-performance liquid chromatography (UPLC) coupled with hybrid Quadrupole-Orbitrap high resolution mass spectrometry (Q-Exactive-HRMS). […] For […] quantitation, brain tissues were quantified by UPLC-MS/MS using a Q-Exactive-HRMS with UPLC. […] Quantification of […] with various fatty acid chain lengths were achieved using the calibration curve of each GlcCer species with closest number of chain length. […]

[5] = system: human PPARγ-LBD; assay: Surface plasmon resonance, PPARγ LBD; settings: Figure S7B, C
Method: Prepared human PPARγ-LBD and human PPARγ-full length (Active Motif, USA) were immobilized onto a CM5 sensor chip using amine coupling. Briefly, the protein was diluted to 50 μg/mL in immobilization buffer and covalently attached to the CM5 chip via an Amine Coupling Kit (Cytiva, USA), following the manufacturer's instructions. A channel without immobilized protein was used as a blank control. […] Gradient concentrations of GlcCer were injected over both channels at a flow rate of 30 μL/min, with an association time and dissociation time of 85 s each.

[6] = CRS mice, pioglitazone 1 μM, GlcCer 200 μM, 1 μL/side, or combination

Substance: Glucosylceramide [GlcCer]
- binding affinity for the LBD (BLI) [1]: minimal binding affinity
- PPARγ activity (dual-luciferase) [2]: increased
- time spent in the center area (OFT) ([3]; CRS mice vs vehicle, pioglitazone 1 μM, GlcCer 200 μM, 1 μL/side, or combination): significant increase
- stress-induced depression-like behaviors (overall) ([3]; CRS mice, administration of GlcCer, pioglitazone or combined): reverses
- immobility duration in the FST [3, 6]: decreased
- sucrose preference in the SPT [3, 6]: increased
- GlcCer levels in the dorsal striatum (LC-MS) [4]: increased
- binding affinity for the LBD (SPR) [5]: minimal binding affinity
